System: early passage (P5) pancreatic-derived stromal cell line
Assay: Two sequential low dose trichostatin A treatments, gene expression by RT-PCR (Example 7)
Format: cell-based, human
Conditions: for HNF (HNF-3 beta) gene expression / Insulin gene expression / Pdx-1 gene expression / glucagon gene expression: 1.25 μM 0-24 h + 96-120 h; for HNF-3 beta RT-PCR detection cycle / Pdx-1 RT-PCR detection cycle / glucagon RT-PCR detection cycle: 1.25 μM
Experimental: Several cell lines obtained from different amniotic fluid specimens (see Example 14) and pancreas donors (see Example 13) were tested with similar results. Two lines at similar passage number but derived from different amniotic fluid specimens are shown in Table VII-A and Table VII-B for this example. One of these cell lines was also used in examples 2 and 4 above. In addition, this example also contains comparison data in Table VII-C and Table VII-D for a single pancreatic-derived stromal line grown to early and late passage number.
Amniotic fluid derived cells or pancreatic-derived stromal cells were seeded into 24-well tissue culture plates at a density of 5000/cm^2 and cultured in AMNIOMAX (Invitrogen) or DMEM with 10% FBS respectively under standard cell culture conditions until confluent. After the cells reached confluency, amniotic fluid derived cells were treated at time 0 hours with a dose of 500 nM trichostatin A, and pancreatic-derived stromal cells were treated with a dose of 1.25 μM trichostatin A solubilized in DMSO and medium. At time 24 hours, cell cultures underwent a complete medium change to remove all traces of trichostatin A. At time 96 hours, cell cultures were re-fed with fresh medium and received a second dose of trichostatin A at the same concentration as used previously. […]
Samples were taken daily for RT-PCR at the times indicated in Table VII-A to D. The culture medium was removed, and samples were rinsed in PBS then collected in RLT with β-mercaptoethanol (Qiagen). RNA was purified using the RNeasy Mini Kit (Qiagen) and RNA quantity and quality were determined using a spectrophotometer. cDNA was made using the iScript cDNA synthesis kit (BioRad).
Samples of 20 ng cDNA were used in each reaction to determine the expression levels of the following genes in amniotic fluid-derived cells: Gata1, HNF-3 beta, Pdx-1, insulin, and Sox17. Similarly, samples of 20 ng cDNA were used in each reaction to determine the expression level of the following genes in pancreatic-derived cells: glucagon, HNF-3 beta, insulin and Pdx-1. Real-Time PCR was performed on the Applied Biosystems 7500, and data was analyzed using the accompanying software according to the methods described in Example 15.
Real-time PCR amplifcation and quantitative analysis. Unless otherwise stated, all reagents were purchased from Applied Biosystems. Real-time PCR reactions were performed using the ABI PRISM™ 7500 Sequence Detection System. TAQMAN™ FAST UNIVERSAL PCR MASTER MIX™ (ABI, CA) was used with 20 ng of reverse transcribed RNA in a total reaction volume of 20 μl. Each cDNA sample was run in duplicate to allow correction of pipetting errors. Primers and FAM-labeled TAQMAN™ probes were used at concentrations of 200 nM. The level of expression for each target gene was normalized using the pre-developed Applied Biosystem's human glyceraldehyde-3-phosphate dehydrogenase (GAPDH) endogenous control kit. Primers and probes were designed using either ABI PRISM PRIMER EXPRESS™ software or a pre-developed ABI gene analysis kit. For each gene, either one of the primers or the probe were designed to be exon-boundary spanning. This eliminated the possibility of the primers/probe binding to any genomic DNA present. The primer and probe sets are listed as follows: Pdx-1 (Hs00426216), Insulin (Hs00355773), glucagon (Hs00174967), and FoxA2 (HNF 3-beta) (Hs00232764). The remaining primers were designed using the PRIMERS program (ABI, CA). After an initial 95° C. incubation for 20 sec, samples were cycled 40 times in two stages: a denaturation step at 95° C. for 3 sec, followed by an annealing/extension step at 60° C. for 30 sec.
For each primer/probe set, a cycle time value was determined as the cycle number at which the fluorescence intensity of the PCR reaction reached a specific value in the middle of the exponential region of amplification. […]

[1] = 24 hours following the addition

CC(/C=C/C(=O)NO)=C\[C@@H](C)C(=O)c1ccc(N(C)C)cc1 [trichostatin A]
HNF (HNF-3 beta) gene expression (24 hrs): +++ (detectable at less than 35 cycles by RT-PCR with SE less than 0.9) | Insulin gene expression (24 hrs): nd (not detectable at >40 cycles by RT-PCR) | Pdx-1 gene expression (24 hrs): +++ (detectable at less than 35 cycles by RT-PCR with SE less than 0.9) | glucagon gene expression (24 hrs): +++ (detectable at less than 35 cycles by RT-PCR with SE less than 0.9) | HNF (HNF-3 beta) gene expression (48 hrs): nd (not detectable at >40 cycles by RT-PCR) | Insulin gene expression (48 hrs): nd (not detectable at >40 cycles by RT-PCR) | Pdx-1 gene expression (48 hrs): nd (not detectable at >40 cycles by RT-PCR) | glucagon gene expression (48 hrs): + (detectable between 35 and 40 cycles by RT-PCR) | HNF (HNF-3 beta) gene expression (72 hrs): nd (not detectable at >40 cycles by RT-PCR) | Insulin gene expression (72 hrs): nd (not detectable at >40 cycles by RT-PCR) | Pdx-1 gene expression (72 hrs): nd (not detectable at >40 cycles by RT-PCR) | glucagon gene expression (72 hrs): nd (not detectable at >40 cycles by RT-PCR) | HNF (HNF-3 beta) gene expression (96 hrs): nd (not detectable at >40 cycles by RT-PCR) | Insulin gene expression (96 hrs): nd (not detectable at >40 cycles by RT-PCR) | Pdx-1 gene expression (96 hrs): nd (not detectable at >40 cycles by RT-PCR) | glucagon gene expression (96 hrs): nd (not detectable at >40 cycles by RT-PCR) | HNF (HNF-3 beta) gene expression (120 hrs): +++ (detectable at less than 35 cycles by RT-PCR with SE less than 0.9) | Insulin gene expression (120 hrs): nd (not detectable at >40 cycles by RT-PCR) | Pdx-1 gene expression (120 hrs): +++ (detectable at less than 35 cycles by RT-PCR with SE less than 0.9) | glucagon gene expression (120 hrs): + (detectable between 35 and 40 cycles by RT-PCR) | HNF (HNF-3 beta) gene expression (144 hrs): nd (not detectable at >40 cycles by RT-PCR) | Insulin gene expression (144 hrs): nd (not detectable at >40 cycles by RT-PCR) | Pdx-1 gene expression (144 hrs): nd (not detectable at >40 cycles by RT-PCR) | glucagon gene expression (144 hrs): + (detectable between 35 and 40 cycles by RT-PCR) | HNF-3 beta RT-PCR detection cycle [1]: 34 cycles | Pdx-1 RT-PCR detection cycle [1]: 34 cycles | HNF-3 beta RT-PCR detection cycle (after the second addition): 33 cycles | Pdx-1 RT-PCR detection cycle (after the second addition): 33 cycles | glucagon RT-PCR detection cycle (after the second treatment cycle): 37 cycles | glucagon RT-PCR detection cycle (first 48 hours after addition): 34 cycles

From patent US20080063628A1, “METHODS TO PROMOTE CELL DIFFERENTIATION” (priority 2006, published 2008)
